Test results taken from patent publication US8173638B2 (Boehringer Ingelheim International GmbH, priority 2006, dated 2012).
Like-named read-outs stand apart in the source and are kept apart here.

Biological target: T1, human CB2R (Homo sapiens, UniProt P34972)
T1 construct: host or cells: CHO cells
Assay: CB2R mediated modulation of cAMP synthesis
Format: cell-based
Details: for agonistic activity: found through the use of the described assays (CB2 agonists), qualitative statement; for Emax: 0.5 h, read-out: Agonist Efficacy (%)
Procedure, shortened: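 Forskolin (10 uM)-driven cAMP in human CB2R-expressing CHO cells, read with DiscoverX-XS kit after 30 min compound exposure at 37 °C, 1 mM IBMX, 0.25% BSA. 100% defined as forskolin cAMP relative to 1 uM CP55940 inhibition. Agonist EC50 via four-parameter logistic model.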

[1] = CHO cells expressing human CB2R, cAMP inhibited by 1 uM CP55940 defined as 100%

T1 sequence (P34972 whole entry): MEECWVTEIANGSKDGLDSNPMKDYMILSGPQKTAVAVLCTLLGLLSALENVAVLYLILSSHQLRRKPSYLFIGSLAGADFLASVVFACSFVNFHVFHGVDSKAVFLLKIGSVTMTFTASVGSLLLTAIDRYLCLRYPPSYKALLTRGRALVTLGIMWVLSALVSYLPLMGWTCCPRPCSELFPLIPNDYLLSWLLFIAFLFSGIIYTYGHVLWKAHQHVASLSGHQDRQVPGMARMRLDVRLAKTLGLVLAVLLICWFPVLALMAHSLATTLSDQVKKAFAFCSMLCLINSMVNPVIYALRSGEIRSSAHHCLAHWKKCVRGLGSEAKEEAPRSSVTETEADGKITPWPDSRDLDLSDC

| agonistic activity | Structure (SMILES) | further results |
| --- | --- | --- |
| agonistic activity | O=C(Nc1cc(-c2ccccc2)no1)N1CCCN(C(=O)C2CCOCC2)CC1 [4-(Tetrahydro-pyran-4-carbonyl)-[1,4]diazepane-1-carboxylic acid (3-phenyl-isoxazol-5-yl)-amide] |  |
|  | CC(C)c1ccc(NC(=O)N2CCCN(C(=O)CCC3CCCCC3)CC2)cc1 [Compound 56, 4-(3-Cyclohexyl-propionyl)-[1,4]diazepane-1-carboxylic acid (4-isopropyl-phenyl)-amide] | Emax [1]: 103%; EC50 (read-out: hCB2 cAMP EC50): 22 nM |
| agonistic activity | CC(C)(C)c1ccc(NC(=O)N2CCCN(C(=O)COc3ccccc3)CC2)cc1 [4-(2-Phenoxy-acetyl)-[1,4]diazepane-1-carboxylic acid (4-tert-butyl-phenyl)-amide] |  |
| agonistic activity | CC(=O)N1CCc2ccc(NC(=O)N3CCCN(C(=O)CC4CCCC4)CC3)cc21 [4-(2-Cyclopentyl-acetyl)-[1,4]diazepane-1-carboxylic acid (1-acetyl-2,3-dihydro-1H-indol-6-yl)-amide] |  |
| agonistic activity | O=C(Nc1ccc(Cl)c(Cl)c1)N1CCCN(C(=O)c2ccc(Cl)cc2)CC1 [4-(4-Chloro-benzoyl)-[1,4]diazepane-1-carboxylic acid (3,4-dichloro-phenyl)-amide] |  |
|  | O=C(Nc1ccc2ccccc2c1)N1CCCN(C(=O)C2CCCCC2)CC1 [Compound 68, 4-Cyclohexanecarbonyl-[1,4]diazepane-1-carboxylic acid naphthalen-2-ylamide] | Emax [1]: 99%; EC50 (read-out: hCB2 cAMP EC50): 26 nM |
| agonistic activity | CC(C)(C)c1cc(NC(=O)N2CCCN(C(=O)N3CCCOCC3)CC2)no1 [4-([1,4]Oxazepane-4-carbonyl)-[1,4]diazepane-1-carboxylic acid (5-tert-butyl-isoxazol-3-yl)-amide] |  |
| agonistic activity | CC(C)(C)c1cc(NC(=O)N2CCCN(C(=O)CN3CCS(=O)(=O)CC3)CC2)on1 [4-[2-(1,1-Dioxo-1λ^6-thiomorpholin-4-yl)-acetyl]-[1,4]diazepane-1-carboxylic acid (3-tert-butyl-isoxazol-5-yl)-amide] |  |
|  | CC(C)(C)c1cc(NC(=O)N2CCCN(C(=O)C3CCC(F)(F)CC3)CC2)no1 [Compound 144, 4-(4,4-Difluoro-cyclohexanecarbonyl)-[1,4]diazepane-1-carboxylic acid (5-tert-butyl-isoxazol-3-yl)-amide] | EC50: 1.3 nM; Emax (CHO): 98% |
| agonistic activity | CCCCc1ccc(NC(=O)N2CCCN(C(=O)CC3CCOCC3)CC2)cc1 [4-(2-Tetrahydro-pyran-4-yl-acetyl)-[1,4]diazepane-1-carboxylic acid (4-butyl-phenyl)-amide] |  |
| agonistic activity | CC(C)c1ccc(NC(=O)N2CCCN(C(=O)C(C)(C)C)CC2)cc1 [4-pivaloyl-[1,4]diazepane-1-carboxylic acid (4-isopropyl-phenyl)-amide] |  |
| agonistic activity | O=C(Nc1ccc(Cl)c(Cl)c1)N1CCCN(C(=O)C2CCCCC2)CC1 [4-Cyclohexanecarbonyl-[1,4]diazepane-1-carboxylic acid (3,4-dichloro-phenyl)-amide] |  |
| agonistic activity | CC(C)(C)C(=O)N1CCCN(C(=O)Nc2ccc(C(C)(C)C)cc2)CC1 [4-(2,2-Dimethyl-propionyl)-[1,4]diazepane-1-carboxylic acid (4-tert-butyl-phenyl)-amide] |  |
| agonistic activity | O=C(CC1CCCC1)N1CCCN(C(=O)Nc2ccc3ccccc3c2)CC1 [4-(2-Cyclopentyl-acetyl)-[1,4]diazepane-1-carboxylic acid (2-naphthyl)-amide] |  |
| agonistic activity | N#Cc1ccc(C(=O)N2CCCN(C(=O)Nc3ccc4ccccc4c3)CC2)cc1 [4-(4-Cyano-benzoyl)-[1,4]diazepane-1-carboxylic acid naphthalen-2-ylamide] |  |
|  | CC(C)(C)c1cc(NC(=O)N2CCCN(C(=O)NC3CCCCC3)CC2)no1 [Compound 212, [1,4]Diazepane-1,4-dicarboxylic acid 1-[(5-tert-butyl-isoxazol-3-yl)-amide] 4-cyclohexylamide] | EC50: 70 nM; Emax (CHO): 102% |
| agonistic activity | Cc1cccc(NC(=O)N2CCCN(C(=O)CCC3CCCC3)CC2)c1 [4-(3-Cyclopentyl-propionyl)-[1,4]diazepane-1-carboxylic acid m-tolylamide] |  |

| agonistic activity | Structure (SMILES) | further results |
| --- | --- | --- |
| agonistic activity | Cn1nc(-c2ccccc2)cc1NC(=O)N1CCCN(C(=O)C2CCOCC2)CC1 [4-(Tetrahydro-pyran-4-carbonyl)-[1,4]diazepane-1-carboxylic acid (2-methyl-5-phenyl-2H-pyrazol-3-yl)-amide] |  |
| agonistic activity | O=C(Nc1ccc2ccccc2c1)N1CCCN(C(=O)c2ccc(Cl)c(Cl)c2)CC1 [4-(3,4-Dichloro-benzoyl)-[1,4]diazepane-1-carboxylic acid naphthalen-2-ylamide] |  |
| agonistic activity | Cc1nc(NC(=O)N2CCCN(C(=O)C3CCOCC3)CC2)sc1C [4-(Tetrahydro-pyran-4-carbonyl)-[1,4]diazepane-1-carboxylic acid (4,5-dimethyl-thiazol-2-yl)-amide] |  |
|  | CC(C)(C)c1cc(NC(=O)N2CCCN(C(=O)C3CCCCC3)CC2)no1 [Compound 153, 4-Cyclohexanecarbonyl-[1,4]diazepane-1-carboxylic acid (5-tert-butyl-isoxazol-3-yl)-amide] | Emax [1]: 104%; EC50 (read-out: hCB2 cAMP EC50): 3.7 nM |
| agonistic activity | O=C(Nc1cc(Cl)cc(Cl)c1)N1CCCN(C(=O)c2ccc(Cl)cc2)CC1 [4-(4-Chloro-benzoyl)-[1,4]diazepane-1-carboxylic acid (3,5-dichloro-phenyl)-amide] |  |
| agonistic activity | O=C(CC1CCCC1)N1CCCN(C(=O)Nc2ccc3c(c2)OC(F)(F)O3)CC1 [4-(2-Cyclopentyl-acetyl)-[1,4]diazepane-1-carboxylic acid (2,2-difluoro-benzo[1,3]dioxol-5-yl)-amide] |  |
| agonistic activity | CC(C)(C)c1cc(NC(=O)N2CCCN(C(=O)C3CCCCC3)CC2)no1 [4-Cyclohexanecarbonyl-[1,4]diazepane-1-carboxylic acid (5-tert-butyl-isoxazol-3-yl)-amide] |  |
| agonistic activity | CC(C)c1ccc(NC(=O)N2CCCN(C(=O)CCC3CCCCC3)CC2)cc1 [4-(3-Cyclohexyl-propionyl)-[1,4]diazepane-1-carboxylic acid (4-isopropyl-phenyl)-amide] |  |
|  | O=C(Nc1ccc(C(F)(F)F)cc1)N1CCCN(C(=O)C2CCC(F)(F)CC2)CC1 [Compound 78, 4-(4,4-Difluoro-cyclohexanecarbonyl)-[1,4]diazepane-1-carboxylic acid (4-trifluoromethyl-phenyl)-amide] | Emax [1]: 87%; EC50 (read-out: hCB2 cAMP EC50): 71 nM |
|  | Cc1nc(NC(=O)N2CCCN(C(=O)C3CCC(F)(F)CC3)CC2)sc1C(C)(C)C [Compound 169, 4-(4,4-Difluoro-cyclohexanecarbonyl)-[1,4]diazepane-1-carboxylic acid (5-tert-butyl-4-methyl-thiazol-2-yl)-amide] | Emax [1]: 95%; EC50 (read-out: hCB2 cAMP EC50): 0.7 nM |
| agonistic activity | O=C(Nc1nc2c(s1)CCCC2)N1CCCN(C(=O)c2ccc(Cl)cc2)CC1 [4-(4-Chloro-benzoyl)-[1,4]diazepane-1-carboxylic acid (4,5,6,7-tetrahydro-benzothiazol-2-yl)-amide] |  |
| agonistic activity | CC(C)(C)c1cnc(NC(=O)N2CCCN(C(=O)N3CCS(=O)(=O)CC3)CC2)s1 [4-(1,1-Dioxo-1λ^6-thiomorpholine-4-carbonyl)-[1,4]diazepane-1-carboxylic acid (5-tert-butyl-thiazol-2-yl)-amide] |  |
| agonistic activity | O=C(CC1CCOCC1)N1CCCN(C(=O)Nc2ccc3c(c2)OC(F)(F)O3)CC1 [4-(2-Tetrahydro-pyran-4-yl-acetyl)-[1,4]diazepane-1-carboxylic acid (2,2-difluoro-benzo[1,3]dioxol-5-yl)-amide] |  |
| agonistic activity | O=C(CC1CCOCC1)N1CCCN(C(=O)Nc2ccc(C(F)(F)F)cc2)CC1 [4-(2-Tetrahydro-pyran-4-yl-acetyl)-[1,4]diazepane-1-carboxylic acid (4-trifluoromethyl-phenyl)-amide] |  |
|  | CC(C)(C)c1ccc(NC(=O)N2CCCN(C(=O)c3ccc(C#N)cc3)CC2)cc1 [Compound 112, 4-(4-Cyano-benzoyl)-[1,4]diazepane-1-carboxylic acid (4-tert-butyl-phenyl)-amide] | Emax [1]: 109%; EC50 (read-out: hCB2 cAMP EC50): 19 nM |
| agonistic activity | CC(C)CCC(=O)N1CCCN(C(=O)Nc2ccc3ccccc3c2)CC1 [4-(4-Methyl-pentanoyl)-[1,4]diazepane-1-carboxylic acid naphthalen-2-ylamide] |  |

| Structure (SMILES) | agonistic activity | further results |
| --- | --- | --- |
| CC(C)(C)c1cc(NC(=O)N2CCCN(C(=O)NC3CCCC3)CC2)no1 | agonistic activity |  |
| CC(C)(C)c1cc(NC(=O)N2CCCN(C(=O)C3CCCCO3)CC2)no1 (stereo not shown) [4-(Tetrahydro-pyran-2-carbonyl)-[1,4]diazepane-1-carboxylic acid (5-tert-butyl-isoxazol-3-yl)-amide] | agonistic activity |  |
| CC(C)(C)c1cc(NC(=O)N2CCCN(C(=O)NC3CCCCC3)CC2)no1 | agonistic activity |  |
| CC(C)(C)c1cc(NC(=O)N2CCCN(C(=O)C3CCC(=O)CC3)CC2)no1 [4-(4-Oxo-cyclohexanecarbonyl)-[1,4]diazepane-1-carboxylic acid (5-tert-butyl-isoxazol-3-yl)-amide] | agonistic activity |  |
| CC(C)(C)c1cc(NC(=O)N2CCCN(C(=O)C3CCN(S(C)(=O)=O)CC3)CC2)no1 [4-(1-Methanesulfonyl-piperidine-4-carbonyl)-[1,4]diazepane-1-carboxylic acid (5-tert-butyl-isoxazol-3-yl)-amide] | agonistic activity |  |
